Data taken from ChEMBL document CHEMBL3421558, “Structure activity relationship of substituted 1,5-naphthyridine analogs of oxabicyclooctane-linked novel bacterial topoisomerase inhibitors as broad-spectrum antibacterial agents (Part-4)” (Bioorg Med Chem Lett, 2015).
≈ marks a conversion by molar mass, not a printed value.

How the values were obtained:
Mus musculus = experiment: Dose normalized AUC in C57BL/6 mouse at 1 mg/kg, iv; format: ADME, organism-based; set-up: dose 1 mg/kg, route intravenous; conditions: in vivo
Streptococcus pneumoniae = experiment: Antimicrobial activity against Streptococcus pneumoniae IID553 by micro broth dilution or agar based method; format: functional; conditions: Streptococcus pneumoniae, IID553; read-out: MIC
Pseudomonas aeruginosa = experiment: Antimicrobial activity against Pseudomonas aeruginosa PAO1 by micro broth dilution or agar based method; format: functional; conditions: Pseudomonas aeruginosa, PAO1; read-out: MIC
Enterococcus faecium = experiment: Antimicrobial activity against VanA expressing vancomycin-resistant Enterococcus faecium by micro broth dilution or agar based method; format: functional; conditions: Enterococcus faecium; read-out: MIC
[1] = Oral bioavailability in C57BL/6 mouse at 10 mg/kg; format: ADME, organism-based; conditions: in vivo
Staphylococcus aureus [2] = experiment: Antimicrobial activity against Staphylococcus aureus Smith by micro broth dilution or agar based method; format: functional; conditions: Staphylococcus aureus, Smith; read-out: MIC
[3] = Volume of distribution at steady state in C57BL/6 mouse at 1 mg/kg, iv or 10 mg/kg, po; format: ADME, organism-based; conditions: in vivo, read-out: Vdss
Escherichia coli = experiment: Antimicrobial activity against Escherichia coli ATCC 25922 by micro broth dilution or agar based method; format: functional; conditions: Escherichia coli, ATCC 25922; read-out: MIC
[4] = Half life in C57BL/6 mouse at 1 mg/kg, iv or 10 mg/kg, po; format: ADME, organism-based; conditions: in vivo
Staphylococcus aureus [5] = experiment: Antimicrobial activity against methicillin-resistant Staphylococcus aureus OIT971 by micro broth dilution or agar based method; format: functional
Acinetobacter baumannii = experiment: Antimicrobial activity against Acinetobacter baumannii IID876 by micro broth dilution or agar based method; format: functional; conditions: Acinetobacter baumannii, IID876; read-out: MIC
[6] = Plasma clearance in C57BL/6 mouse at 1 mg/kg, iv or 10 mg/kg, po; format: ADME, organism-based

Work on COc1ccc2nccc(CCC34CCC(NCc5ccc6c(n5)NC(=O)CO6)(CC3)CO4)c2n1 yielded an AUC/dose (Mus musculus) of 0.86 µM·h/mg/kg, an MIC (Streptococcus pneumoniae) of 0.5 µg/mL (≈ 1.05 µM) and an MIC (Pseudomonas aeruginosa) of 8 µg/mL (≈ 16.8 µM). For the same compound, the MIC (Enterococcus faecium) was 1 µg/mL (≈ 2.1 µM), the bioavailability [1] was 30.4% and the MIC (Staphylococcus aureus [2]) was 0.031 µg/mL (≈ 0.0652 µM). It also gave a Vd [3] of 5.95 L/kg, an MIC (Escherichia coli) of 2 µg/mL (≈ 4.21 µM) and a half-life [4] of 7.97 h. It also gave an MIC (Staphylococcus aureus [5]) of 0.031 µg/mL (≈ 0.0652 µM), an MIC (Acinetobacter baumannii) of 2 µg/mL (≈ 4.21 µM) and a clearance [6] of 40.8 mL/min/kg.
